Measurements: ChEMBL document CHEMBL1629655, “Affinity of Tomopenem (CS-023) for penicillin-binding proteins in Staphylococcus aureus, Escherichia coli, and Pseudomonas aeruginosa” (Antimicrob Agents Chemother, 2009)
In brackets after ≈: the same amount, converted by molar mass.

Experiments:
[1] = test system: Escherichia coli; experiment: Antibacterial activity against Escherichia coli EIR2b selected at 2 times MIC of imipenem by microdilution method; assay type: functional
[2] = Displacement of [14C]benzylpenicillin from PBP2 in Pseudomonas aeruginosa ATCC 15692
[3] = test system: Escherichia coli; experiment: Antibacterial activity against Escherichia coli ERR4a selected at 4 times MIC of tomopenem by microdilution method; assay type: functional
[4] = Displacement of [14C]benzylpenicillin from PBP6 Escherichia coli NIHJ
[5] = test system: Escherichia coli; experiment: Antibacterial activity against Escherichia coli EIR4b selected at 4 times MIC of imipenem by microdilution method; assay type: functional
[6] = test system: Staphylococcus aureus; experiment: Antibacterial activity against Staphylococcus aureus SMR2a selected at 2 times MIC of meropenem by microdilution method; assay type: functional
[7] = test system: Escherichia coli; experiment: Antibacterial activity against Escherichia coli ERR2b selected at 2 times MIC of tomopenem by microdilution method; assay type: functional
[8] = Displacement of [14C]benzylpenicillin from PBP1A in Pseudomonas aeruginosa ATCC 15692
[9] = test system: Escherichia coli; experiment: Antibacterial activity against Escherichia coli ERR2a selected at 2 times MIC of tomopenem by microdilution method; assay type: functional
[10] = Displacement of [14C]benzylpenicillin from PBP3 in Staphylococcus aureus ATCC 6538P
[11] = test system: Escherichia coli; experiment: Ratio of MIC for Escherichia coli EIR2b to MIC for Escherichia coli NIHJ; assay type: functional
[12] = Displacement of [14C]benzylpenicillin from PBP1B in Escherichia coli NIHJ
[13] = Displacement of [14C]benzylpenicillin from PBP1A in Escherichia coli NIHJ
[14] = Displacement of [14C]benzylpenicillin from PBP4 in Escherichia coli NIHJ
[15] = test system: Pseudomonas aeruginosa; experiment: Ratio of MIC for Pseudomonas aeruginosa PMR2a to MIC for Pseudomonas aeruginosa ATCC 15692; assay type: functional
[16] = Displacement of [14C]benzylpenicillin from PBP3 in Escherichia coli NIHJ
[17] = test system: Escherichia coli; experiment: Ratio of MIC for Escherichia coli ERR2b to MIC for Escherichia coli NIHJ; assay type: functional
[18] = test system: Pseudomonas aeruginosa; experiment: Antibacterial activity against Pseudomonas aeruginosa PRR4a selected at 4 times MIC of tomopenem by microdilution method; assay type: functional
[19] = Displacement of [14C]benzylpenicillin from PBP 5 in Pseudomonas aeruginosa ATCC 15692
[20] = test system: Staphylococcus aureus; experiment: Antibacterial activity against Staphylococcus aureus SIR2a selected at 2 times MIC of imipenem by microdilution method; assay type: functional
[21] = test system: Staphylococcus aureus; experiment: Ratio of MIC for Staphylococcus aureus SMR2a to MIC for Staphylococcus aureus ATCC 6538P; assay type: functional
[22] = Displacement of [14C]benzylpenicillin from PBP5 in Escherichia coli NIHJ
[23] = test system: Pseudomonas aeruginosa; experiment: Antibacterial activity against Pseudomonas aeruginosa ATCC 15692 by microdilution method; assay type: functional, organism-based
[24] = test system: Escherichia coli; experiment: Antibacterial activity against Escherichia coli EIR4a selected at 4 times MIC of imipenem by microdilution method; assay type: functional
[25] = test system: Escherichia coli; experiment: Antibacterial activity against Escherichia coli EIR2a selected at 2 times MIC of imipenem by microdilution method; assay type: functional
[26] = test system: Pseudomonas aeruginosa; experiment: Antibacterial activity against Pseudomonas aeruginosa PIR2a selected at 2 times MIC of imipenem by microdilution method; assay type: functional
[27] = test system: Escherichia coli; experiment: Antibacterial activity against Escherichia coli EMR2a selected at 2 times MIC of meropenem by microdilution method; assay type: functional
[28] = test system: Escherichia coli; experiment: Antibacterial activity against Escherichia coli EIR8a selected at 8 times MIC of imipenem by microdilution method; assay type: functional
[29] = test system: Escherichia coli; experiment: Ratio of MIC for Escherichia coli ERR4a to MIC for Escherichia coli NIHJ; assay type: functional
[30] = test system: Escherichia coli; experiment: Antibacterial activity against Escherichia coli NIHJ by microdilution method; assay type: functional, organism-based
[31] = Displacement of [14C]benzylpenicillin from PBP 6 in Pseudomonas aeruginosa ATCC 15692
[32] = Displacement of [14C]benzylpenicillin from PBP1B in Pseudomonas aeruginosa ATCC 15692
[33] = test system: Escherichia coli; experiment: Ratio of MIC for Escherichia coli EIR4a to MIC for Escherichia coli NIHJ; assay type: functional
[34] = test system: Staphylococcus aureus; experiment: Antibacterial activity against Staphylococcus aureus SRR2a selected at 2 times MIC of tomopenem by microdilution method; assay type: functional
[35] = Displacement of [14C]benzylpenicillin from PBP4 in Staphylococcus aureus ATCC 6538P
[36] = test system: Pseudomonas aeruginosa; experiment: Ratio of MIC for Pseudomonas aeruginosa PRR4a to MIC for Pseudomonas aeruginosa ATCC 15692; assay type: functional
[37] = test system: Staphylococcus aureus; experiment: Ratio of MIC for Staphylococcus aureus SIR2a selected at 2 times MIC of imipenem to MIC for Staphylococcus aureus ATCC 6538P; assay type: functional
[38] = test system: Escherichia coli; experiment: Ratio of MIC for Escherichia coli ERR2a selected to MIC for Escherichia coli NIHJ; assay type: functional
[39] = test system: Escherichia coli; experiment: Ratio of MIC for Escherichia coli EIR2a to MIC for Escherichia coli NIHJ; assay type: functional
[40] = test system: Pseudomonas aeruginosa; experiment: Antibacterial activity against Pseudomonas aeruginosa PMR2a selected at 2 times MIC of meropenem by microdilution method; assay type: functional
[41] = test system: Staphylococcus aureus; experiment: Antibacterial activity against Staphylococcus aureus SMR4a […] MIC of meropenem by microdilution method; assay type: functional
[42] = Displacement of [14C]benzylpenicillin from PBP4 in Pseudomonas aeruginosa ATCC 15692
[43] = test system: Escherichia coli; experiment: Ratio of MIC for Escherichia coli ERR8a to MIC for Escherichia coli NIHJ; assay type: functional
[44] = test system: Escherichia coli; experiment: Ratio of MIC for Escherichia coli EIR4b to MIC for Escherichia coli NIHJ; assay type: functional
[45] = test system: Escherichia coli; experiment: Ratio of MIC for Escherichia coli EIR8a to MIC for Escherichia coli NIHJ; assay type: functional
[46] = Displacement of [14C]benzylpenicillin from PBP1 in Staphylococcus aureus ATCC 6538P
[47] = test system: Pseudomonas aeruginosa; experiment: Ratio of MIC for Pseudomonas aeruginosa PIR2a to MIC for Pseudomonas aeruginosa ATCC 15692; assay type: functional
[48] = test system: Staphylococcus aureus; experiment: Ratio of MIC for Staphylococcus aureus SMR4a to MIC for Staphylococcus aureus ATCC 6538P; assay type: functional
[49] = Displacement of [14C]benzylpenicillin from PBP2 Staphylococcus aureus ATCC 6538P
[50] = Displacement of [14C]benzylpenicillin from PBP3 in Pseudomonas aeruginosa ATCC 15692
[51] = test system: Escherichia coli; experiment: Ratio of MIC for Escherichia coli EMR2a to MIC for Escherichia coli NIHJ; assay type: functional
[52] = test system: Staphylococcus aureus; experiment: Ratio of MIC for Staphylococcus aureus SRR2a to MIC for Staphylococcus aureus ATCC 6538P; assay type: functional
[53] = test system: Staphylococcus aureus; experiment: Antibacterial activity against Staphylococcus aureus ATCC 6538P by microdilution method; assay type: functional, organism-based
[54] = Displacement of [14C]benzylpenicillin from PBP2 in Escherichia coli NIHJ
[55] = test system: Escherichia coli; experiment: Antibacterial activity against Escherichia coli ERR8a selected at 8 times MIC of tomopenem by microdilution method; assay type: functional

For `C[C@@H](O)[C@H]1C(=O)N2C(C(=O)O)=C(SCCNC=N)C[C@H]12` [IMIPENEM ANHYDROUS], the MIC [1] was 0.5 µg/mL, the IC50 [2] was 0.066 µg/mL (≈ 0.22 µM) and the MIC [3] was 1 µg/mL. The IC50 [4] was 1 µg/mL (≈ 3.34 µM), the MIC [5] was 1 µg/mL and the MIC [6] was 0.03 µg/mL. For the same compound, the MIC [7] was 1 µg/mL, the IC50 [8] was 0.057 µg/mL (≈ 0.19 µM) and the MIC [9] was 1 µg/mL. For the same compound, the IC50 [10] was 0.049 µg/mL (≈ 0.164 µM), the Ratio MIC [11] was 2 and the IC50 [12] was 1.1 µg/mL (≈ 3.67 µM). The IC50 [13] was 0.22 µg/mL (≈ 0.735 µM), the IC50 [14] was 0.44 µg/mL (≈ 1.47 µM) and the Ratio MIC [15] was 16. For the same compound, the IC50 [16] was 19 µg/mL (≈ 63.5 µM), the Ratio MIC [17] was 4 and the MIC [18] was 8 µg/mL. It also gave an IC50 [19] of 0.19 µg/mL (≈ 0.635 µM), an MIC [20] of 0.03 µg/mL and a Ratio MIC [21] of 4. It also gave an IC50 [22] of 0.34 µg/mL (≈ 1.14 µM), an MBC [23] of 2 µg/mL (≈ 6.68 µM) and an MIC [23] of 1 µg/mL (≈ 3.34 µM). For the same compound, the MIC [24] was 1 µg/mL, the MIC [25] was 1 µg/mL and the MIC [26] was 16 µg/mL. For the same compound, the MIC [27] was 1 µg/mL, the MIC [28] was 0.5 µg/mL and the Ratio MIC [29] was 4. It also gave an MBC [30] of 0.25 µg/mL (≈ 0.835 µM), an MIC [30] of 0.25 µg/mL (≈ 0.835 µM) and an IC50 [31] of 0.19 µg/mL (≈ 0.635 µM). The IC50 [32] was 0.078 µg/mL (≈ 0.261 µM), the Ratio MIC [33] was 4 and the MIC [34] was 0.03 µg/mL. For the same compound, the IC50 [35] was 0.0078 µg/mL (≈ 0.0261 µM), the Ratio MIC [36] was 8 and the Ratio MIC [37] was 4. The Ratio MIC [38] was 4, the Ratio MIC [39] was 4 and the MIC [40] was 16 µg/mL. The MIC [41] was 0.03 µg/mL, the IC50 [42] was 0.0032 µg/mL (≈ 0.0107 µM) and the Ratio MIC [43] was 2. For the same compound, the Ratio MIC [44] was 4, the Ratio MIC [45] was 2 and the IC50 [46] was 0.024 µg/mL (≈ 0.0802 µM). The Ratio MIC [47] was 16, the ratio [48] was 4 and the IC50 [49] was 0.047 µg/mL (≈ 0.157 µM). The IC50 [50] was 0.089 µg/mL (≈ 0.297 µM), the Ratio MIC [51] was 4 and the Ratio MIC [52] was 4. For the same compound, the IC50 [53] was 0.008 µg/mL (≈ 0.0267 µM), the MBC [53] was 0.008 µg/mL (≈ 0.0267 µM) and the MIC [53] was 0.008 µg/mL (≈ 0.0267 µM). The IC50 [54] was 0.045 µg/mL (≈ 0.15 µM) and the MIC [55] was 0.5 µg/mL.

For `C[C@H]1COc2c(N3CCN(C)CC3)c(F)cc3c(=O)c(C(=O)O)cn1c23.C[C@H]1COc2c(N3CCN(C)CC3)c(F)cc3c(=O)c(C(=O)O)cn1c23.O` [LEVOFLOXACIN], the MIC [6] was 0.12 µg/mL, the Ratio MIC [17] was 2 and the MIC [20] was 0.06 µg/mL. For the same compound, the Ratio MIC [21] was 2, the MIC [26] was 0.5 µg/mL and the MIC [34] was 0.12 µg/mL. It also gave a Ratio MIC [37] of 1, an MIC [41] of 0.06 µg/mL and a ratio [48] of 1. It also gave a Ratio MIC [52] of 2.
